Data as given in US20240402196A1 (Exact Sciences Corporation, priority 2018, published 2024).

Key:
Hb = biological target: T1, Hb (Homo sapiens, UniProt P68871+P69905); experiment: Appendix B additive screen, % Hb Recovery
T1 construct: To assess the stability of hemoglobin in stool samples, samples were exposed to simulated shipping stress conditions; from tissue; host or cells: stool samples

[1] = biological target: T2, hemoglobin in stool samples (Homo sapiens, UniProt P68871+P69905); experiment: 3-Day shipping simulation, hemoglobin % recovery by ELISA; design: from tissue; host or cells: stool samples;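 note: stool samples put through shipping stress in a thermal cycler, hemoglobin quantified by ELISA before and after, stability given as post-stress % of the pre-stress level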
[2] = biological target: T2, hemoglobin in stool samples; experiment: Accelerated shipping simulation (35C 16 hour challenge), hemoglobin % recovery by ELISA; design: from tissue; host or cells: stool samples;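 note: stool hemoglobin measured by ELISA before and after thermal-cycler shipping stress, stability given as percent of pre-stress hemoglobin recovered afterwards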
[3] = biological target: T2, hemoglobin in stool samples; experiment: 3-Day extreme temperature shipping simulation, hemoglobin % recovery by ELISA; design: from tissue; host or cells: stool samples
Protocol: (§1) To assess the stability of hemoglobin in stool samples, samples were exposed to simulated shipping stress conditions using a thermal cycler. […] An ELISA based detection method is used to determine the hemoglobin concentrations of samples before and after exposure to the shipping simulation. Hemoglobin stability is calculated as a % recovery of hemoglobin after the samples have been exposed to the shipping simulation.
As an additional challenge, a shipping simulation meant to represent a “worst case” scenario was created using extreme temperatures.

hemoglobin (Hb) = biological target: T3, hemoglobin (Hb) (Homo sapiens, UniProt P68871+P69905); experiment: Appendix B: additives in Hb Collection Buffer, % Hb Recovery
T3 construct: To assess the stability of hemoglobin in stool samples, samples were exposed to simulated shipping stress conditions; from tissue; host or cells: stool samples

[4] = biological target: T2, hemoglobin in stool samples; experiment: 7-Day shipping simulation, hemoglobin % recovery by ELISA; design: from tissue; host or cells: stool samples
Protocol: as §1
To assess the stability of hemoglobin in stool samples beyond 3 days, a 7-Day shipping simulation was created.

[5] = concentrations and buffer pH 6.5 or 7.4 as in the 13th table
[6] = concentrations and buffer pH 6.5 or 7.4 as in the 15th table
[7] = concentrations and buffer pH 6.5 or 7.4 as in the 14th table

T1 sequence (P69905 2-142 limits assumed): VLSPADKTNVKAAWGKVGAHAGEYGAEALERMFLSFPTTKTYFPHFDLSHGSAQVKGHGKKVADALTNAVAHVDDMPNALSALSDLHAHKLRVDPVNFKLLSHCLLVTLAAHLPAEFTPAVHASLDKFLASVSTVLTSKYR
T1 sequence (P68871 2-147 limits assumed): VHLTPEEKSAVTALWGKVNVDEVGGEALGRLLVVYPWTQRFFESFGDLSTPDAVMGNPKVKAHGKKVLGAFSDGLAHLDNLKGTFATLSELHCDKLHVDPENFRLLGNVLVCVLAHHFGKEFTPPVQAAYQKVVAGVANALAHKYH
T2 sequence (P69905 2-142 limits assumed): as the sequence (P69905 2-142 limits assumed) above
T2 sequence (P68871 2-147 limits assumed): as the sequence (P68871 2-147 limits assumed) above
T3 sequence (P69905 2-142 limits assumed): as the sequence (P69905 2-142 limits assumed) above
T3 sequence (P68871 2-147 limits assumed): as the sequence (P68871 2-147 limits assumed) above

Magnesium Gluconate
Results (Hb): No Improvement | Results ([1]; additive concentration 5 mM): Magnesium Cation shows | Results ([1]; additive concentration 10 mM): Magnesium Cation shows | Results ([1]; additive concentration 20 mM): Magnesium Cation shows | Results ([1]; additive concentration 30 mM): Magnesium Cation shows | Results ([1]; additive concentration 40 mM): Magnesium Cation shows | Results ([1]; additive concentration 50 mM): Magnesium Cation shows | Results ([2]; additive concentration 1.2 uM): No Improvement | Results ([2]; additive concentration 12 uM): No Improvement | Results ([2]; additive concentration 120 uM): No Improvement

O=C([O-])c1ccccc1.[Na+] [Sodium Benzoate]
Results (Hb): No Improvement | Results ([1]; Additive Concentration 0.03%): No improvement | Results ([1]; Additive Concentration 0.04%): No improvement | Results ([1]; Additive Concentration 0.05%): No improvement | Results ([1]; Additive Concentration 0.06%): No improvement | Results ([1]; Additive Concentration 0.10%): No improvement | Results ([1]; Additive Concentration 0.50%): No improvement | Results ([1]; Additive Concentration 1%): No improvement

O=P(O)(O)O [Sodium Phosphate]
Results (Hb): No Improvement

O=S(=O)([O-])[O-].[Mg+2] [Magnesium Sulfate]
Results ([1]; Additive Concentration 10 mM): Magnesium Cation shows | Results ([1]; additive concentration 0.001M): Magnesium Cation shows | Results ([1]; additive concentration 5 mM): Magnesium Cation shows | Results ([1]; additive concentration 0.01M): Magnesium Cation shows | Results ([1]; additive concentration 10 mM): Magnesium Cation shows | Results ([1]; additive concentration 20 mM): Magnesium Cation shows | Results ([1]; additive concentration 30 mM): Magnesium Cation shows | Results ([1]; additive concentration 40 mM): Magnesium Cation shows | Results ([1]; additive concentration 0.05M): Magnesium Cation shows | Results ([1]; additive concentration 50 mM): Magnesium Cation shows | Notes (Hb stability vs Hb Collection Buffer) ([1]; additive concentrations as in the 8th table): Improved Hb | Results ([2]; additive concentration 10 mM): Improvement | Notes (Hb stability vs Hb Collection Buffer) ([3]; additive concentrations as in the 10th table): Improved Hb | Results (hemoglobin (Hb); Additive Concentration 10 mM): Improvement in % Hb | Notes (Hb stability vs Hb Collection Buffer) ([4]; additive concentrations as in the 9th table): Improved Hb

O=[N+]([O-])C1(Br)COCOC1 [5-bromo-5-nitro-1,3-dioxane]
Results (Hb): No Improvement

OCCO [Ethylene Glycol]
Results (Hb): No Improvement

[Ca+2].[Cl-].[Cl-] [Calcium Chloride (anhydrous)]
Results (Hb): Calcium cation shows

[Cl-].[K+] [Potassium Chloride]
Results (Hb): No Improvement

O=C([O-])O.[Na+] [Sodium Bicarbonate]
Results (Hb): No Improvement | Results ([2]; additive concentration 0.0000895 mM): No Improvement | Results ([2]; additive concentration 0.000895 mM): No Improvement | Results ([2]; additive concentration 0.00895 mM): No Improvement | Results ([2]; additive concentration 0.0895 mM): No Improvement | Results ([2]; additive concentration 0.895 mM): No Improvement | Results ([2]; additive concentration 8.95 mM): No Improvement

C=CC1=C(C)c2cc3[n-]c(cc4nc(cc5[n-]c(cc1n2)c(C)c5C=C)C(C)=C4CCC(=O)O)c(CCC(=O)O)c3C.[Zn+2] [Protoprophyrin IX Zn]
Results (Hb): No Improvement

Sodium hydroxylmethyl glycinate
Results (Hb): No Improvement

O=C([O-])[O-].[Na+].[Na+] [Sodium Carbonate]
Results (Hb): No Improvement

Calcium Gluconate
Results (Hb): No Improvement

phosphatidylcholine
Results (Hb): No Improvement

N.N.O=S(=O)(O)O [Ammonium Sulfate]
Results (Hb): No Improvement

[O-][Cl+3]([O-])([O-])O [Sodium Perchlorate]
Results (Hb): No Improvement

Cl.Cn1sccc1=O [2-methyl-4-isothiazolin-3-one-hydrochloride]
Results (Hb): No Improvement

CC(=O)O.N [Ammonium Acetate]
Results (Hb): No Improvement

[Cl-].[Cl-].[Mg+2] [Magnesium Chloride]
Results (Hb): Magnesium Cation shows | Results ([1]; additive concentration 5 mM): Magnesium Cation shows | Results ([1]; additive concentration 10 mM): Magnesium Cation shows | Results ([1]; additive concentration 20 mM): Magnesium Cation shows | Results ([1]; additive concentration 30 mM): Magnesium Cation shows | Results ([1]; additive concentration 40 mM): Magnesium Cation shows | Results ([1]; additive concentration 50 mM): Magnesium Cation shows

CC(=O)[O-].[K+] [Potassium Acetate]
Results (Hb): No Improvement

N.N.O=C(O)C(=O)O [Ammonium Oxalate]
Results (Hb): No Improvement

[Cl][Fe][Cl] [Iron (2) Chloride]
Results (Hb): No Improvement

[Cl-].[Li+] [Lithium Chloride]
Results (Hb): No Improvement

O=S([O-])O.[Na+] [Sodium Bisulfite]
Results (Hb): No Improvement

CCCCCCn1cc[n+](C)c1.[Cl-] [1-hexyl-3-methylimidazolium chloride]
Results (Hb): No Improvement

O.O.[Ca+2].[Cl-].[Cl-] [Calcium Chloride (dihydrate)]
Results (Hb): Calcium cation shows

C[N+](C)(C)[O-] [Trimethylamine N-oxide (TMANO)]
Results (Hb): No Improvement | Results ([1]; additive concentration 1.1M): Slight Improvement | Results ([1]; additive concentration 2.15M): Slight Improvement | Results ([1]; additive concentration 3M): No Improvement | Results ([1]; additive concentration 3.5M): No Improvement | Results ([1]; additive concentration 4M): No Improvement | Results ([2]; additive concentration 500 uM): No Improvement | Results ([2]; additive concentration 5 mM): No Improvement | Results ([2]; additive concentration 50 mM): No Improvement | Results ([2]; additive concentration 87 mM): No Improvement

C=CC1=C(C)c2cc3[n-]c(cc4[n-]c(cc5nc(cc1n2)C(C)=C5C=C)c(C)c4CCC(=O)O)c(CCC(=O)O)c3C.[Cl-].[Fe+3] [Hemin]
Notes (Hb stability vs Hb Collection Buffer) [1, 5]: Improved | Results ([2]; additive concentration 0.0003%, pH 6.5): Improvement | Results ([2]; additive concentration 0.0003%; pH 6.4): Improvement in % Hb | Results ([2]; additive concentration 0.0003%; pH 6.5): Improvement in % Hb | Results ([2]; additive concentration 0.0003%; pH 6.6): Improvement in % Hb | Results ([2]; additive concentration 0.0003%; pH 6.7): Improvement in % Hb | Results ([2]; additive concentration 0.0003%; pH 6.8): Improvement in % Hb | Results ([2]; additive concentration 0.0003%; pH 6.9): Improvement in % Hb | Results ([2]; additive concentration 0.0003%; pH 7.0): Improvement in % Hb | Results ([2]; additive concentration 0.0003%; pH 7.1): Improvement in % Hb | Results ([2]; additive concentration 0.0003%; pH 7.2): Improvement in % Hb | Results ([2]; additive concentration 0.0003%; pH 7.3): Improvement in % Hb | Results ([2]; additive concentration 0.0003%; pH 7.4): Improvement in % Hb | Results ([2]; additive concentration 0.0003%; pH 7.5): Improvement in % Hb | Notes (Hb stability vs Hb Collection Buffer) [3, 6]: Improved | Notes (Hb stability vs Hb Collection Buffer) [4, 7]: Improved

NCC(=O)O [Glycine]
Results (Hb): No Improvement

CC(=O)[O-].[Na+] [Sodium Acetate]
Results (Hb): No Improvement

CCn1cc[n+](C)c1.[Cl-] [1-ethyl-3-methylimidazolium chloride]
Results (Hb): No Improvement

[Br-].[Na+] [Sodium Bromide]
Results (Hb): No Improvement

Cl.N [Ammonium Chloride]
Results (Hb): No Improvement

C=CC1=C(C)c2cc3[n-]c(cc4nc(cc5[n-]c(cc1n2)c(C)c5CCC(=O)O)C(CCC(=O)O)=C4C)c(C)c3C=C.[Mg+2] [Protoporphyrin IX Magnesium]
Results (hemoglobin (Hb); Additive Concentration 0.1 uM): No Improvement | Results (hemoglobin (Hb); Additive Concentration 1 uM): No Improvement | Results (hemoglobin (Hb); additive concentration 10 uM): No Improvement | Results (hemoglobin (Hb); additive concentration 25 uM): No Improvement | Results (hemoglobin (Hb); additive concentration 50 uM): No Improvement

C=CC1=C(C)c2cc3[n-]c(cc4nc(cc5[n-]c(cc1n2)c(C)c5C=C)C(C)=C4CCC(=O)O)c(CCC(=O)O)c3C.[Cl-].[Cl-].[Sn+4] [Protoporphyrin IX Tin]
Results (hemoglobin (Hb); Additive Concentration 0.1 uM): No Improvement | Results (hemoglobin (Hb); Additive Concentration 1 uM): No Improvement | Results (hemoglobin (Hb); additive concentration 10 uM): No Improvement

C=CC1=C(C)c2cc3[n-]c(cc4nc(cc5[n-]c(cc1n2)c(C)c5C=C)C(C)=C4CCC(=O)O)c(CCC(=O)O)c3C.[Zn+2] [Protoporphyrin IX Zn, Protoporphyrin IX Zinc]
Notes (Hb stability vs Hb Collection Buffer) [1, 5]: Improved | Results ([2]; additive concentration 1 uM, pH 6.5): Improvement | Results ([2]; additive concentration 1 uM, pH 7.4): Improvement | Notes (Hb stability vs Hb Collection Buffer) [3, 6]: Improved | Results (hemoglobin (Hb); Additive Concentration 0.001 uM): No Improvement | Results (hemoglobin (Hb); Additive Concentration 0.01 uM): Improvement in % Hb | Results (hemoglobin (Hb); Additive Concentration 0.1 uM): Improvement in % Hb | Results (hemoglobin (Hb); Additive Concentration 1 uM): Improvement in % Hb | Results (hemoglobin (Hb); additive concentration 10 uM): Improvement in % Hb | Results (hemoglobin (Hb); additive concentration 100 uM): Improvement in % Hb | Notes (Hb stability vs Hb Collection Buffer) [4, 7]: Improved
